In the RepoRT retention time repository:

Assay: HILIC, Waters ACQUITY UPLC BEH HILIC, 150 × 2.1 mm, 1.7 µm, 40 °C, 0.6 mL/min, estimated dead time 0.55 min; A: water + 0.1% formic acid + 20 mM ammonium formate, pH 3.5; B: acetonitrile + 0.1% formic acid, pH 3; gradient (min/%B) 0/95 0.1/95 4.6/80 5.5/50 7.0/50 7.1/95 7.2/95 7.3/95 7.4/95 7.5/95 7.6/95 7.7/95 7.8/95 12.50/95 12.65/95
Details: stereoisomer not certain

Row | Compound | LC retention time [min]
1 | O=C(O)C1CCCN1 (stereo unspecified) [Proline] | 4.46
2 | CCC(=O)OC(CC(=O)[O-])C[N+](C)(C)C (stereo unspecified) [Propionylcarnitine CAR(3:0)] | 4.82
3 | O=c1[nH]cc(C2OC(CO)C(O)C2O)c(=O)[nH]1 (stereo unspecified) [Pseudouridine] | 1.25
4 | NC(CCCCn1c(C=O)ccc1CO)C(=O)O (stereo unspecified) [Pyralline] | 4.28
5 | C=CC1CN2CCC1CC2C(O)c1ccnc2ccc(OC)cc12 (stereo unspecified) [Quinine] | 3.03
6 | C[S+](CCC(N)C(=O)O)CC1OC(n2cnc3c(N)ncnc32)C(O)C1O (stereo unspecified) [S-Adenosylmethionine] | 6.25
7 | CCCCCCCCCCCCCCCCCC(=O)OC(CC(=O)[O-])C[N+](C)(C)C (stereo unspecified) [Stearoylcarnitine CAR(18:0)] | 3.74
8 | OCC1OC(OC2(CO)OC(CO)C(O)C2O)C(O)C(O)C1O (stereo unspecified) [Sucrose] | 2.27
9 | NCCS(=O)(=O)O [Taurine] | 2.61
10 | CC(CCC(=O)NCCS(=O)(=O)O)C1CCC2C3C(O)CC4CC(O)CCC4(C)C3CC(O)C12C (stereo unspecified) [Taurocholic Acid] | 2.47
11 | NCCc1c[nH]c2ccccc12 [Tryptamine] | 2.79

The remaining lines, values ahead:

Row | LC retention time [min] | Compound
12 | 1.81 | CC(CCC(=O)NCCS(=O)(=O)O)C1CCC2C3CCC4CC(O)CCC4(C)C3CC(O)C12C (stereo unspecified) [Taurodeoxycholic Acid]
13 | 1.75 | CC(CCC(=O)NCCS(=O)(=O)O)C1CCC2C3C(O)CC4CC(O)CCC4(C)C3CCC12C (stereo unspecified) [Tauroursodeoxycholic acid]
14 | 3.78 | CCCCCCCCCCCCCC(=O)OC(CC(=O)[O-])C[N+](C)(C)C (stereo unspecified) [Tetradecanoylcarnitine CAR(14:0)]
15 | 5.49 | Cc1ncc(C[n+]2csc(CCO)c2C)c(N)n1 [Thiamine]
16 | 4.54 | CC=C(C)C(=O)OC(CC(=O)[O-])C[N+](C)(C)C (stereo unspecified) [Tiglylcarnitine CAR(5:1)]
17 | 4.85 | C[n+]1cccc(C(=O)[O-])c1 [Trigonelline]
18 | 4.18 | C[N+](C)(C)[O-] [Trimethylamine N-oxide]
19 | 3.51 | CC(=O)C[N+](C)(C)C [Trimethylaminoacetone]
20 | 3.91 | C[N+](C)(C)C(Cc1c[nH]c2ccccc12)C(=O)[O-] (stereo unspecified) [Tryptophan betaine]
21 | 3.82 | NC(Cc1c[nH]c2ccccc12)C(=O)O (stereo unspecified) [Tryptophan]
22 | 1.3 | O=C(O)C=Cc1cnc[nH]1 [Urocanic acid]
23 | 4.39 | CCCCC(=O)OC(CC(=O)[O-])C[N+](C)(C)C (stereo unspecified) [Valerylcarnitine]
24 | 0.673 | CC(=O)CC(c1ccccc1)c1c(O)c2ccccc2oc1=O (stereo unspecified) [Warfarin]
25 | 1.15 | O=c1[nH]c(=O)c2[nH]cnc2[nH]1 [Xanthine]
26 | 6.02 | C[N+](C)(C)CCOP(=O)([O-])OCC(O)CO (stereo unspecified) [a-Glycerophosphocholine]
